According to PubChem BioAssay AID248 (DTP/NCI, 2004):
Values joined by “and” are separate entries in the source; they are usually repeats but may differ in a detail not shown here. Identical values can stand only once. Toxic doses and inconclusive results are not listed. Cut-off read from the data, not from the text of the source: active = T/C of 150% or more; inactive = T/C below 125%.

Tested on: L1210 leukemia ip in BDF1 mice, survival T/C
Test: NCI In Vivo Anticancer Drug Screen. Data for tumor model L1210 Leukemia (intraperitoneal) in B6D2F1 (BDF1) mice
Conditions: endpoint: mean survival time, higher = longer survival
How it was run: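 Antitumor effect is assessed in tumor-bearing animals. Survival in the compound arm is compared with a vehicle-dosed control arm and expressed as their quotient.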

[1] = dose: 100.0 mg/kg/injection, schedule: Q01DX009 (ip), vehicle: Klucel (hydroxypropylcellulose) (HPC)
[2] = dose: 200.0 mg/kg/injection, schedule: Q01DX009 (ip), vehicle: Klucel (hydroxypropylcellulose) (HPC)
[3] = dose: 400.0 mg/kg/injection, schedule: Q01DX009 (ip), vehicle: Klucel (hydroxypropylcellulose) (HPC)
[4] = dose: 200.0 mg/kg/injection, schedule: Q01DX001 (ip), vehicle: saline
[5] = dose: 100.0 mg/kg/injection, schedule: Q04DX002 (ip), vehicle: saline with Tween-80
[6] = dose: 400.0 mg/kg/injection, schedule: Q04DX002 (ip), vehicle: saline with Tween-80
[7] = dose: 100.0 mg/kg/injection, schedule: Q01DX009 (ip), vehicle: saline with Tween-80
[8] = dose: 100.0 mg/kg/injection, schedule: Q04DX003 (ip), vehicle: Klucel (hydroxypropylcellulose) (HPC)
[9] = dose: 100.0 mg/kg/injection, schedule: Q04DX003 (ip), vehicle: saline with Tween-80
[10] = dose: 400.0 mg/kg/injection, schedule: Q04DX003 (ip), vehicle: Klucel (hydroxypropylcellulose) (HPC)
[11] = dose: 50.0 mg/kg/injection, schedule: Q01DX009 (ip), vehicle: Klucel (hydroxypropylcellulose) (HPC)
[12] = dose: 200.0 mg/kg/injection, schedule: Q04DX003 (ip), vehicle: Klucel (hydroxypropylcellulose) (HPC)
[13] = dose: 100.0 mg/kg/injection, schedule: Q04DX002 (ip), vehicle: Klucel (hydroxypropylcellulose) (HPC)
[14] = dose: 200.0 mg/kg/injection, schedule: Q04DX002 (ip), vehicle: Klucel (hydroxypropylcellulose) (HPC)

Measured: T/C

O=C(Nc1cccc(Cl)c1)C(Br)C(Br)c1ccccc1 (stereo unspecified)
inactive: [1] 102 % of control | [2] 103 % of control | [3] 100 % of control

O=NN(CCCl)C(=O)N[C@@H]1CCC[C@@H](O)C1
active: dose: 13.0 mg/kg/injection, schedule: Q01DX001 (ip), vehicle: saline with Tween-80 250 % of control | dose: 20.0 mg/kg/injection, schedule: Q01DX001 (ip), vehicle: saline with Tween-80 357 % of control | dose: 30.0 mg/kg/injection, schedule: Q01DX001 (ip), vehicle: saline with Tween-80 420 % of control | dose: 44.0 mg/kg/injection, schedule: Q01DX001 (ip), vehicle: saline with Tween-80 417 % of control

O=C(N/N=C/c1ccc(Cl)cc1)c1ccccc1NC(=O)C1CC1
inactive: [1] 97 % of control | [2] 87 % of control | [3] 103 % of control

CN(CC(=O)C(C(N)=O)c1ccccc1)c1ccccc1 (stereo unspecified)
inactive: dose: 50.0 mg/kg/injection, schedule: Q01DX001 (ip), vehicle: carboxymethylcellulose (CMC) 96 % of control | dose: 100.0 mg/kg/injection, schedule: Q01DX001 (ip), vehicle: carboxymethylcellulose (CMC) 93 % of control | dose: 200.0 mg/kg/injection, schedule: Q01DX001 (ip), vehicle: carboxymethylcellulose (CMC) 93 % of control | dose: 400.0 mg/kg/injection, schedule: Q01DX001 (ip), vehicle: carboxymethylcellulose (CMC) 102 % of control

Cc1ccc(S(=O)(=O)Oc2ccccc2NS(=O)(=O)c2ccccc2)cc1
inactive: dose: 100.0 mg/kg/injection, schedule: Q01DX001 (ip), vehicle: saline 101 % of control | dose: 100.0 mg/kg/injection, schedule: Q04DX003 (ip), vehicle: acetone 96 % of control | [4] 95 % of control | dose: 200.0 mg/kg/injection, schedule: Q04DX003 (ip), vehicle: acetone 92 % of control | dose: 400.0 mg/kg/injection, schedule: Q01DX001 (ip), vehicle: saline 95 % of control | dose: 400.0 mg/kg/injection, schedule: Q04DX003 (ip), vehicle: acetone 87 % of control

CCN(CC)CCNC(=O)c1ccc(N=Cc2cc(Br)ccc2O)cc1
inactive: [1] 98 % of control | [2] 96 % of control

CCCCCCCC/C=C\CCCCCCCCNP(=O)(OCCCCCCCCCCCC)OCCCCCCCCCCCC
inactive: [5] 101 % of control | [6] 86 % of control

CCOC(=O)c1cn2ccc3ccccc3c2n1
inactive: dose: 100.0 mg/kg/injection, schedule: Q01DX001 (ip), vehicle: Klucel (hydroxypropylcellulose) (HPC) 103 % of control | dose: 200.0 mg/kg/injection, schedule: Q01DX001 (ip), vehicle: Klucel (hydroxypropylcellulose) (HPC) 98 % of control | dose: 400.0 mg/kg/injection, schedule: Q01DX001 (ip), vehicle: Klucel (hydroxypropylcellulose) (HPC) 98 % of control

CC1CN=C(c2c(O)ccc3ccccc23)S1 (stereo unspecified)
inactive: dose: 100.0 mg/kg/injection, schedule: Q04DX002 (ip), vehicle: gum acacia 96 % of control | dose: 200.0 mg/kg/injection, schedule: Q04DX002 (ip), vehicle: gum acacia 93 % of control | dose: 400.0 mg/kg/injection, schedule: Q04DX002 (ip), vehicle: gum acacia 90 % of control

O=C1C(Br)=Cc2cccc3cccc1c23
inactive: dose: 25.0 mg/kg/injection, schedule: Q01DX009 (ip), vehicle: saline sonified 100 % of control | dose: 50.0 mg/kg/injection, schedule: Q01DX009 (ip), vehicle: saline sonified 97 % of control | dose: 100.0 mg/kg/injection, schedule: Q01DX009 (ip), vehicle: saline sonified 100 % of control | [7] 101 % of control | [8] 90 % of control | [9] 97 % of control | dose: 200.0 mg/kg/injection, schedule: Q01DX009 (ip), vehicle: saline with Tween-80 104 % of control | dose: 200.0 mg/kg/injection, schedule: Q04DX003 (ip), vehicle: saline with Tween-80 95 % of control | dose: 400.0 mg/kg/injection, schedule: Q01DX009 (ip), vehicle: saline with Tween-80 97 % of control | [10] 87 % of control | dose: 400.0 mg/kg/injection, schedule: Q04DX003 (ip), vehicle: saline with Tween-80 103 % of control

O=Cc1ccccc1B(O)O
inactive: [11] 96 % of control and 101 % of control | [1] 97 % of control and 100 % of control | [8] 98 % of control | [2] 105 % of control and 124 % of control | [12] 86 % of control

COc1ccc(C)cc1NC(=O)c1ccc(Cl)cc1Cl
inactive: [1] 98 % of control | [2] 101 % of control | [3] 97 % of control

C1CCN(CCC2CCNCC2)C1
inactive: dose: 25.0 mg/kg/injection, schedule: Q01DX009 (ip), vehicle: saline 106 % of control | dose: 25.0 mg/kg/injection, schedule: Q04DX003 (ip), vehicle: saline 97 % of control | dose: 50.0 mg/kg/injection, schedule: Q01DX009 (ip), vehicle: saline 95 % of control | dose: 50.0 mg/kg/injection, schedule: Q04DX003 (ip), vehicle: saline 97 % of control | dose: 100.0 mg/kg/injection, schedule: Q01DX009 (ip), vehicle: saline 106 % of control | dose: 100.0 mg/kg/injection, schedule: Q04DX003 (ip), vehicle: saline 96 % of control and 100 % of control

COc1cccc2cc([N+](=O)[O-])oc12
inactive: dose: 25.0 mg/kg/injection, schedule: Q01DX009 (ip), vehicle: Klucel (hydroxypropylcellulose) (HPC) 98 % of control | [11] 93 % of control | dose: 50.0 mg/kg/injection, schedule: Q04DX002 (ip), vehicle: Klucel (hydroxypropylcellulose) (HPC) 105 % of control | [1] 101 % of control | [13] 94 % of control | [14] 101 % of control

CCC1(C)CC=C2C(=CCC3C(C)(CO)CCCC23C)C1 (stereo unspecified)
inactive: dose: 50.0 mg/kg/injection, schedule: Q04DX002 (ip), vehicle: other 104 % of control | dose: 100.0 mg/kg/injection, schedule: Q04DX002 (ip), vehicle: other 93 % of control | dose: 200.0 mg/kg/injection, schedule: Q04DX002 (ip), vehicle: other 96 % of control

CCCCCCCCCCCCCCCCN(C(=S)c1ccccc1)c1ccccc1
inactive: [1] 89 % of control | [8] 104 % of control | [2] 90 % of control | [12] 94 % of control | [3] 87 % of control | [10] 96 % of control

CN(C)c1ccc(/C=N/NC(=O)CCCCCCCCC(=O)N/N=C/c2ccc(N(C)C)cc2)cc1
inactive: dose: 12.5 mg/kg/injection, schedule: Q01DX009 (ip), vehicle: saline with Tween-80 101 % of control and 104 % of control | dose: 25.0 mg/kg/injection, schedule: Q01DX009 (ip), vehicle: saline with Tween-80 94 % of control and 97 % of control | dose: 50.0 mg/kg/injection, schedule: Q04DX003 (ip), vehicle: saline with Tween-80 98 % of control | dose: 100.0 mg/kg/injection, schedule: Q01DX001 (ip), vehicle: saline with Tween-80 100 % of control | [5] 101 % of control and 104 % of control | [9] 93 % of control | dose: 200.0 mg/kg/injection, schedule: Q01DX001 (ip), vehicle: saline with Tween-80 100 % of control | dose: 200.0 mg/kg/injection, schedule: Q04DX002 (ip), vehicle: saline with Tween-80 101 % of control and 102 % of control | [6] 108 % of control

O=C(O)CCCCCC(=O)c1ccccc1
inactive: [13] 100 % of control | [14] 118 % of control | dose: 400.0 mg/kg/injection, schedule: Q04DX002 (ip), vehicle: Klucel (hydroxypropylcellulose) (HPC) 107 % of control

CCOC(=O)C(C)(C)CN(CC(C)(C)C(=O)OCC)C(C)(C)C
inactive: dose: 100.0 mg/kg/injection, schedule: Q01DX001 (ip), vehicle: saline sonified 87 % of control | dose: 200.0 mg/kg/injection, schedule: Q01DX001 (ip), vehicle: saline sonified 93 % of control | dose: 400.0 mg/kg/injection, schedule: Q01DX001 (ip), vehicle: saline sonified 91 % of control

CC1(C)CCC(C)(C)c2c1ccc(O)c2Cc1c(O)ccc2c1C(C)(C)CCC2(C)C
inactive: [8] 96 % of control | [4] 87 % of control | [12] 96 % of control | [10] 94 % of control

C1=CC2(C=C1)OC21CCC2(C=CC3(C2)OC3C2CCCCC2)CC1 (stereo unspecified)
inactive: dose: 50.0 mg/kg/injection, schedule: Q01DX009 (ip), vehicle: saline with Tween-80 94 % of control | [7] 94 % of control
